Experimental data published in patent publication US10106501B2, “Nuclear receptor modulators” (AbbVie Inc., priority 2015, dated 2018).

Molecular target: T1, chimeric human RORγ-Gal4 receptor (Homo sapiens, UniProt P51449)
T1 sequence (P51449 269-508 limits assumed): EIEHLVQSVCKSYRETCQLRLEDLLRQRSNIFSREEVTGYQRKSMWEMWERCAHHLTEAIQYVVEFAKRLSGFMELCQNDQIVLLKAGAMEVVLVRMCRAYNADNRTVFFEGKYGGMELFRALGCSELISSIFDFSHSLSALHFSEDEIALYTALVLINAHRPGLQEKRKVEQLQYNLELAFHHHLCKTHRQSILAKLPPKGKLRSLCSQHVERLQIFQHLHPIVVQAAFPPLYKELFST
Assay: transient transactivation assay (RORγ-Gal4 luciferase reporter)
Assay type: cell-based
Conditions: Cos-7 cells transfected with RORγ-Gal4 and 5Gal4 pGL3 TK Luc reporter; overnight incubation; T0901317 at 10^-5 M as reference; read-out: IC50

IC50	SMILES
< 100 nM	Cc1cn(C(=O)c2c(Cl)ccc(C(=O)N3CCC(CC(=O)O)CC3)c2Cl)c2c(C)cc(C(F)(F)F)cc12 [DJ, 2-(1-(2,4-dichloro-3-(3,7-dimethyl-5-(trifluoromethyl)-1H-indole-1-carbonyl)benzoyl)piperidin-4-yl)acetic acid]
100 to 500 nM	Cc1cn(Cc2c(Cl)ccc(C(=O)N3CCC(O)CC3)c2Cl)c2c(C)cc(C#N)cc12 [DK, 1-(2,6-dichloro-3-(4-hydroxypiperidine-1-carbonyl)benzyl)-3,7-dimethyl-1H-indole-5-carbonitrile]
< 100 nM	Cc1cn(Cc2c(Cl)ccc(C(=O)N3CCC(CC(=O)O)CC3)c2Cl)c2c(C)cc(C#N)cc12 [DL, 2-(1-(2,4-dichloro-3-((5-cyano-3,7-dimethyl-1H-indol-1-yl)methyl)benzoyl)piperidin-4-yl)acetic acid]
100 to 500 nM	Cc1cn(C(=O)c2c(Cl)ccc(C(=O)N3CCC(O)CC3)c2Cl)c2c(C)cc(C#N)cc12 [DM, 1-(2,6-dichloro-3-(4-hydroxypiperidine-1-carbonyl)benzoyl)-3,7-dimethyl-1H-indole-5-carbonitrile]
< 100 nM	Cc1cn(C(=O)c2c(Cl)ccc(C(=O)N3CCC(CC(=O)O)CC3)c2Cl)c2c(C)cc(C#N)cc12 [DN, 2-(1-(2,4-dichloro-3-(5-cyano-3,7-dimethyl-1H-indole-1-carbonyl)benzoyl)piperidin-4-yl)acetic acid]
< 100 nM	Cc1cc(C(F)(F)F)nc2c1cc(Cc1c(Cl)ncc(C(=O)N3CCC(O)CC3)c1Cl)n2C [DO, (4,6-dichloro-5-((1,4-dimethyl-6-(trifluoromethyl)-1H-pyrrolo[2,3-b]pyridin-2-yl)methyl)pyridin-3-yl)(4-hydroxypiperidin-1-yl)methanone]
< 100 nM	Cc1cc(OC(F)(F)F)cc2c1cc(Cc1c(Cl)ccc(C(=O)N3CCC(CC(=O)O)CC3)c1Cl)n2C [DP, 2-(1-(2,4-dichloro-3-((1,4-dimethyl-6-(trifluoromethoxy)-1H-indol-2-yl)methyl)benzoyl)piperidin-4-yl)acetic acid]
< 100 nM	Cc1cc(OC(F)(F)F)cc2c1cc(Cc1c(Cl)ccc(C(=O)N3CCOCC3)c1Cl)n2C [DP-1, (2,4-dichloro-3-((1,4-dimethyl-6-(trifluoromethoxy)-1H-indol-2-yl)methyl)phenyl)(morpholino)methanone]
< 100 nM	Cc1cc(OC(F)(F)F)cc2c1cc(Cc1c(Cl)ccc(C(=O)N3CC[C@H](C(=O)O)[C@H](C)C3)c1Cl)n2C [DP-2, (3S,4S)-1-(2,4-dichloro-3-((1,4-dimethyl-6-(trifluoromethoxy)-1H-indol-2-yl)methyl)benzoyl)-3-methylpiperidine-4-carboxylic acid]
< 100 nM	Cc1cc(OC(F)(F)F)cc2c1cc(Cc1c(Cl)ccc(C(=O)N3CC[C@@H](C(=O)O)[C@@H](C)C3)c1Cl)n2C [DP-3, (3R,4R)-1-(2,4-dichloro-3-((1,4-dimethyl-6-(trifluoromethoxy)-1H-indol-2-yl)methyl)benzoyl)-3-methylpiperidine-4-carboxylic acid]
< 100 nM	Cn1c(Cc2c(Cl)ccc(C(=O)N3CCOCC3)c2Cl)cc2c(Cl)cc(C#N)cc21 [DQ, 4-chloro-2-(2,6-dichloro-3-(morpholine-4-carbonyl)benzyl)-1-methyl-1H-indole-6-carbonitrile]
< 100 nM	Cc1cc(OC(F)(F)F)cc2c1c(Cc1c(Cl)ccc(C(=O)N3CCC(CC(=O)O)CC3)c1Cl)cn2C [DU1-1]
< 100 nM	Cc1cc(OC(F)(F)F)cc2c1c(Cc1c(Cl)ccc(C(=O)N3CCC(C(=O)O)C(C)C3)c1Cl)cn2C (stereo not drawn) [DU1-2]
< 100 nM	Cc1cc(OC(F)(F)F)cc2c1c(Cc1c(Cl)ccc(C(=O)N3CCC(C(=O)O)CC3)c1Cl)cn2C [DU, 1-[2,4-dichloro-3-[[1,4-dimethyl-6-(trifluoromethoxy)-1H-indol-3-yl]methyl]benzoyl]piperidine-4-carboxylic acid]
< 100 nM	Cc1cc(C(F)(F)F)cc2c1c(Cc1c(Cl)ncc(C(=O)N3CCC(CC(=O)O)CC3)c1Cl)cn2C [DV, 2-[1-[4,6-dichloro-5-[[1,4-dimethyl-6-(trifluoromethyl)-1H-indol-3-yl]methyl]pyridine-3-carbonyl]-4-piperidyl]acetic acid]
< 100 nM	Cc1cc(C(F)(F)F)cc2c1c(Cc1c(Cl)cnc(C(=O)N3CCC(CC(=O)O)CC3)c1Cl)cn2C [DW, 2-[1-[3,5-dichloro-4-[[1,4-dimethyl-6-(trifluoromethyl)-1H-indol-3-yl]methyl]pyridine-2-carbonyl]-4-piperidyl]acetic acid]
< 100 nM	Cc1cc(OC(F)(F)F)cc2c1c(Cc1c(Cl)cnc(C(=O)N3CCC(CC(=O)O)CC3)c1Cl)cn2C [DX, 2-[1-[3,5-dichloro-4-[[1,4-dimethyl-6-(trifluoromethoxy)-1H-indol-3-yl]methyl]pyridine-2-carbonyl]-4-piperidyl]acetic acid]
< 100 nM	Cc1cc(OC(F)(F)F)cc2c1c(Cc1c(Cl)ncc(C(=O)N3CCC(CC(=O)O)CC3)c1Cl)cn2C [DY, 2-[1-[4,6-dichloro-5-[[1,4-dimethyl-6-(trifluoromethoxy)-1H-indol-3-yl]methyl]pyridine-3-carbonyl]-4-piperidyl]acetic acid]
< 100 nM	Cc1cc(C(F)(F)F)cc2occ(Cc3c(Cl)ccc(C(=O)N4CCC(CC(=O)O)CC4)c3Cl)c12 [DZ, 2-(1-(2,4-dichloro-3-((4-methyl-6-(trifluoromethyl)benzofuran-3-yl)methyl)benzoyl)piperidin-4-yl)acetic acid]
< 100 nM	Cc1nn(C(=O)c2c(Cl)ccc(C(=O)N3CCC(CC(=O)O)CC3)c2Cl)c2c(C)cc(C(F)(F)F)cc12 [EA, 2-(1-(2,4-dichloro-3-(3,7-dimethyl-5-(trifluoromethyl)-1H-indazole-1-carbonyl)benzoyl)piperidin-4-yl)acetic acid]

IC50	SMILES
< 100 nM	Cc1cc(C(F)(F)F)cc2c(C)n(C(=O)c3c(Cl)ccc(C(=O)N4CCC(CC(=O)O)CC4)c3Cl)nc12 [EB, 2-(1-(2,4-dichloro-3-(3,7-dimethyl-5-(trifluoromethyl)-2H-indazole-2-carbonyl)benzoyl)piperidin-4-yl)acetic acid]
< 100 nM	Cc1cc(C(F)(F)F)cc2cnn(Cc3c(Cl)ccc(C(=O)N4CCC(CC(=O)O)CC4)c3Cl)c12 [EC, 2-(1-(2,4-dichloro-3-((7-methyl-5-(trifluoromethyl)-1H-indazol-1-yl)methyl)benzoyl)piperidin-4-yl)acetic acid]
< 100 nM	Cc1cc(C(F)(F)F)cc2cn(Cc3c(Cl)ccc(C(=O)N4CCC(CC(=O)O)CC4)c3Cl)nc12 [ED, 2-(1-(2,4-dichloro-3-((7-methyl-5-(trifluoromethyl)-2H-indazol-2-yl)methyl)benzoyl)piperidin-4-yl)acetic acid]
< 100 nM	Cc1cc(C(F)(F)F)cc2c1c(Cc1c(Cl)ccc(C(=O)N3CCC(CC(=O)O)CC3)c1Cl)nn2C [EE, 2-(1-(2,4-dichloro-3-((1,4-dimethyl-6-(trifluoromethyl)-1H-indazol-3-yl)methyl)benzoyl)piperidin-4-yl)acetic acid]
< 100 nM	Cc1nn(Cc2c(Cl)ccc(C(=O)N3CCC(CC(=O)O)CC3)c2Cl)c2ccc(C(F)(F)F)cc12 [EF, 2-(1-(2,4-dichloro-3-((3-methyl-5-(trifluoromethyl)-1H-indazol-1-yl)methyl)benzoyl)piperidin-4-yl)acetic acid]
< 100 nM	Cc1cn(Cc2c(Cl)ccc(C(=O)N3CCC(CC(=O)O)CC3)c2Cl)c2c(C)cc(OC(F)(F)F)cc12 [EG, 2-[1-[2,4-dichloro-3-[[3,7-dimethyl-5-(trifluoromethoxy)-1H-indol-1-yl]methyl]benzoyl]-4-piperidyl]acetic acid]
< 100 nM	Cc1cn(Cc2c(Cl)ccc(C(=O)N3CCC(C(=O)O)CC3)c2Cl)c2c(C)cc(OC(F)(F)F)cc12 [EG-1]
< 100 nM	Cc1cn(Cc2c(Cl)ccc(C(=O)N3CC[C@@H](C(=O)O)[C@@H](C)C3)c2Cl)c2c(C)cc(OC(F)(F)F)cc12 [EG-2]
< 100 nM	Cc1cn(C(=O)c2c(Cl)ccc(C(=O)N3CCC(CC(=O)O)CC3)c2Cl)c2c(C)cc(OC(F)(F)F)cc12 [EH, 2-[1-[2,4-dichloro-3-[3,7-dimethyl-5-(trifluoromethoxy)indole-1-carbonyl]benzoyl]-4-piperidyl]acetic acid]
100 to 500 nM	Cc1cn(C(=O)c2c(Cl)ccc(C(=O)N3CCC(C(=O)O)CC3)c2Cl)c2c(C)cc(OC(F)(F)F)cc12 [EH-1]
< 100 nM	O=C(O)CC1CCN(C(=O)c2ccc(Cl)c(Cn3ccc4cc(OC(F)(F)F)ccc43)c2Cl)CC1 [EI, 2-(1-(2,4-dichloro-3-((5-(trifluoromethoxy)-1H-indol-1-yl)methyl)benzoyl)piperidin-4-yl)acetic acid]
< 100 nM	CC(C)c1ccc2c(ccn2Cc2c(Cl)ccc(C(=O)N3CCC(CC(=O)O)CC3)c2Cl)c1 [EI-1]
< 100 nM	CSc1ccc2c(ccn2Cc2c(Cl)ccc(C(=O)N3CCC(CC(=O)O)CC3)c2Cl)c1 [EI-2]
< 100 nM	O=C(O)CC1CCN(C(=O)c2ccc(Cl)c(Cn3ccc4cccc(Cl)c43)c2Cl)CC1 [EI-3]
< 100 nM	O=C(O)CC1CCN(C(=O)c2ccc(Cl)c(Cn3ccc4cc(C(F)(F)F)ccc43)c2Cl)CC1 [EI-4]
< 100 nM	O=C(O)CC1CCN(C(=O)c2ccc(Cl)c(Cn3ccc4cc(C(F)(F)F)cc(Cl)c43)c2Cl)CC1 [EI-5]
< 100 nM	O=C(O)CC1CCN(C(=O)c2ccc(Cl)c(Cn3ccc4c(C(F)(F)F)cccc43)c2Cl)CC1 [EI-7]
< 100 nM	Cc1cc(OC(F)(F)F)cc2ccn(Cc3c(Cl)ccc(C(=O)N4CCC(CCC(=O)O)CC4)c3Cl)c12 [EJ-2]
< 100 nM	Cc1ccc(C(=O)N2CCC(CC(=O)O)CC2)c(C)c1Cn1ccc2cc(OC(F)(F)F)cc(C)c21 [EK, 2-(1-(2,4-dimethyl-3-((7-methyl-5-(trifluoromethoxy)-1H-indol-1-yl)methyl)benzoyl)piperidin-4-yl)acetic acid]
